Literature values, collected in US20250000913A1, “SALMONELLA ENGINEERED FOR NONTOXIC COLONIZATION OF TUMORS” (priority 2021, published 2025).

How the values were obtained:
[1] = in vivo
[2] = mouse, in vivo

| SMILES | half-life of circulating CKD-516 [1] | day on which weight gain resumed [2] | weight loss [2] |
| --- | --- | --- | --- |
| COc1cc(C(=O)c2ccc(-c3csc(NC(=O)[C@@H](N)C(C)C)n3)cc2-n2cncn2)cc(OC)c1OC.Cl [CKD-516] | about 5 hours | – | – |
| COc1cccc2c1C(=O)c1c(O)c3c(c(O)c1C2=O)C[C@@](O)(C(=O)CO)C[C@@H]3O[C@H]1C[C@H](N)[C@H](O)[C@H](C)O1 [doxorubicin] | – | 21 days | over 25% |
